Test results published in patent US20260262643A1, “HERBICIDAL BENZOXAZINES” (FMC CORPORATION, priority 2022, published 2026).

Tests used:
[1] = tested on: rice; experiment: Test D flooded paddy test; format: in vivo, Oryza sativa; settings: 250 g ai/ha, applied to paddy water, visual rating after 13 to 14 days, scale 0 to 100 (0 no effect, 100 complete control)
In short: (§1)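 Post-flood water application at the 2-leaf stage; 3 cm flood depth kept constant; visual control rating 0–100 after 13–14 days greenhouse growth.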

[2] = tested on: green foxtail; experiment: Test C postemergence; format: in vivo, Setaria viridis; settings: 10 days
In short: (§2)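 Pre: seeds in loam/sand, directed soil spray. Post: 1–2 leaf plants, 2–10 cm. Cmpd in non-phytotoxic solvent + surfactant. Greenhouse 10 d; visual rating vs untreated, 0 = none, 100 = complete control.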

[3] = tested on: blackgrass; experiment: Test C preemergence; format: in vivo, Alopecurus myosuroides; settings: for Plant response rating, Blackgrass: Preemergence; for Blackgrass plant response rating: preemergence
In short: as §2

[4] = tested on: ryegrass, Italian; experiment: Test C preemergence; format: in vivo, Lolium multiflorum; settings: for Plant response rating, Ryegrass, Italian: Preemergence; for Ryegrass, Italian plant response rating: preemergence
In short: as §2

[5] = tested on: pigweed, palmer; experiment: Test C postemergence; format: in vivo, Amaranthus palmeri; settings: 10 days
In short: as §2

[6] = tested on: ragweed; experiment: Test C preemergence; format: in vivo, Ambrosia artemisiifolia; settings: for Plant response rating, Ragweed: Preemergence; for Ragweed plant response rating: preemergence
In short: as §2

[7] = tested on: corn; experiment: Test C preemergence; format: in vivo, Zea mays; settings: for Plant response rating, Corn: Preemergence; for Corn plant response rating: preemergence
In short: as §2

[8] = tested on: wheat; experiment: Test C postemergence; format: in vivo, Triticum aestivum; settings: 10 days
In short: as §2

[9] = tested on: galium; experiment: Test C postemergence; format: in vivo, Galium aparine; settings: 10 days
In short: as §2

[10] = tested on: sedge, umbrella; experiment: Test D flooded paddy test; format: in vivo, Cyperus difformis; settings: 250 g ai/ha, applied to paddy water, visual rating after 13 to 14 days, scale 0 to 100 (0 no effect, 100 complete control)
In short: as §1

[11] = tested on: ducksalad; experiment: Test D flooded paddy test; format: in vivo, Heteranthera limosa; settings: 250 g ai/ha, applied to paddy water, visual rating after 13 to 14 days, scale 0 to 100 (0 no effect, 100 complete control)
In short: as §1

[12] = tested on: green foxtail; experiment: Test C preemergence; format: in vivo, Setaria viridis; settings: for Plant response rating, Foxtail, Green: Preemergence; for Foxtail, Green plant response rating: preemergence
In short: as §2

[13] = tested on: kochia; experiment: Test C preemergence; format: in vivo, Bassia scoparia; settings: for Plant response rating, Kochia: Preemergence; for Kochia plant response rating: preemergence
In short: as §2

[14] = tested on: corn; experiment: Test C postemergence; format: in vivo, Zea mays; settings: 10 days
In short: as §2

[15] = tested on: oat, wild; experiment: Test C preemergence; format: in vivo, Avena fatua; settings: for Plant response rating, Oat, Wild: Preemergence; for Oat, Wild plant response rating: preemergence
In short: as §2

[16] = tested on: oat, wild; experiment: Test C postemergence; format: in vivo, Avena fatua; settings: 10 days
In short: as §2

[17] = tested on: ryegrass, Italian; experiment: Test C postemergence; format: in vivo, Lolium multiflorum; settings: 10 days
In short: as §2

[18] = tested on: barnyardgrass; experiment: Test C postemergence; format: in vivo, Echinochloa crusgalli; settings: 10 days
In short: as §2

[19] = tested on: pigweed, palmer; experiment: Test C preemergence; format: in vivo, Amaranthus palmeri; settings: for Plant response rating, Pigweed, Palmer: Preemergence; for Pigweed, Palmer plant response rating: preemergence
In short: as §2

[20] = tested on: ragweed; experiment: Test C postemergence; format: in vivo, Ambrosia artemisiifolia; settings: 10 days
In short: as §2

[21] = tested on: wheat; experiment: Test C preemergence; format: in vivo, Triticum aestivum; settings: for Plant response rating, Wheat: Preemergence; for Wheat plant response rating: preemergence
In short: as §2

[22] = tested on: barnyardgrass; experiment: Test C preemergence; format: in vivo, Echinochloa crusgalli; settings: for Plant response rating, Barnyardgrass: Preemergence; for Barnyardgrass plant response rating: preemergence
In short: as §2

[23] = tested on: kochia; experiment: Test C postemergence; format: in vivo, Bassia scoparia; settings: 10 days
In short: as §2

[24] = tested on: soybean; experiment: Test C postemergence; format: in vivo, Glycine max; settings: 10 days
In short: as §2

[25] = tested on: blackgrass; experiment: Test C postemergence; format: in vivo, Alopecurus myosuroides; settings: 10 days
In short: as §2

[26] = tested on: soybean; experiment: Test C preemergence; format: in vivo, Glycine max; settings: for Plant response rating, Soybean: Preemergence; for Soybean plant response rating: preemergence
In short: as §2

[27] = tested on: barnyardgrass; experiment: Test D flooded paddy test; format: in vivo, Echinochloa crus-galli; settings: 250 g ai/ha, applied to paddy water, visual rating after 13 to 14 days, scale 0 to 100 (0 no effect, 100 complete control)
In short: as §1

[28] = tested on: horseweed; experiment: Test C postemergence; format: in vivo, Erigeron canadensis; settings: 10 days
In short: as §2

[29] = 125 g ai/ha, postemergence, 0 to 100 scale, 0 no effect, 100 complete control
[30] = Postemergence, 500 g ai/ha, visual 0 to 100 scale (0 no effect, 100 complete control)
[31] = 500 g ai/ha, visual rating after 10 days, 0 to 100 scale (0 no effect, 100 complete control)
[32] = Test C, 125 g ai/ha, 0 to 100 scale (0 no effect, 100 complete control)
[33] = 500 g ai/ha, postemergence, 0 to 100 scale (0 no effect, 100 complete control)
[34] = Postemergence, 125 g ai/ha, 0 to 100 scale (0 no effect, 100 complete control)
[35] = 500 g ai/ha, 0 to 100 scale (0 no effect, 100 complete control)
[36] = 125 g ai/ha, 0 to 100 scale, 0 no effect, 100 complete control

Cc1cc(-n2cnc(C(C)C)n2)cc(C(=O)N2C[C@H](C)Oc3c(Cl)cccc32)c1F [Compound 223]
0: Corn plant response rating [7, 32] | Plant response rating, Ragweed [20, 29]
60: Plant response rating, Foxtail, Green [2, 30] | Kochia plant response rating [13, 32]
40: Blackgrass plant response rating [3, 32] | Plant response rating, Ragweed [6, 31] | Plant response rating, Corn [7, 31] | Plant response rating, Barnyardgrass [18, 30]
30: Plant response rating, Foxtail, Green [2, 29] | Plant response rating, Wheat [8, 30] | Plant response rating, Oat, Wild [16, 30] | Plant response rating, Blackgrass [25, 29] | Plant response rating, Horseweed [28, 30]
80: Ryegrass, Italian plant response rating [4, 32] | Plant response rating, Pigweed, Palmer [5, 29] | Plant response rating, Ducksalad (Flood) [11] | Plant response rating, Kochia [13, 31] | Plant response rating, Corn [14, 30]
100: Plant response rating, Galium [9, 29] | Plant response rating, Foxtail, Green [12, 31] | Foxtail, Green plant response rating [12, 32] | Plant response rating, Pigweed, Palmer [19, 31] | Pigweed, Palmer plant response rating [19, 32] | Plant response rating, Barnyardgrass [22, 31] | Plant response rating, Soybean [24, 29] | Plant response rating, Soybean [24, 30]
20: Plant response rating, Corn [14, 29] | Plant response rating, Barnyardgrass [18, 29] | Wheat plant response rating [21, 32] | Plant response rating, Horseweed [28, 29]
70: Plant response rating, Oat, Wild [15, 31] | Plant response rating, Blackgrass [25, 30] | Plant response rating, Soybean [26, 31]
90: Plant response rating, Blackgrass [3, 31] | Plant response rating, Ryegrass, Italian [4, 31] | Plant response rating, Pigweed, Palmer [5, 30] | Plant response rating, Ryegrass, Italian [17, 30] | Plant response rating, Wheat [21, 31] | Barnyardgrass plant response rating [22, 32] | Plant response rating, Kochia [23, 29] | Plant response rating, Kochia [23, 30]
95: Plant response rating, Sedge, Umbrella (Flood) [10]
50: Ragweed plant response rating [6, 32] | Oat, Wild plant response rating [15, 32] | Plant response rating, Ryegrass, Italian [17, 29]
10: Plant response rating, Rice (Flood) [1] | Plant response rating, Wheat [8, 29] | Plant response rating, Oat, Wild [16, 29] | Plant response rating, Ragweed [20, 30] | Soybean plant response rating [26, 32] | Plant response rating, Barnyardgrass (Flood) [27]

COC[C@H]1CN(C(=O)c2cc(-n3cnc(C4CCC4)n3)cc3c2OCCO3)c2cccc(Cl)c2O1 [Compound 380]
40: Plant response rating, Sedge, Umbrella (Flood) [10] | Oat, Wild plant response rating [15, 35] | Plant response rating, Ryegrass, Italian [17, 34]
100: Plant response rating, Pigweed, Palmer [5, 33] | Plant response rating, Galium [9, 33] | Plant response rating, Galium [9, 34] | Foxtail, Green plant response rating [12, 35] | Pigweed, Palmer plant response rating [19, 35] | Plant response rating, Pigweed, Palmer [19, 36] | Plant response rating, Ragweed [20, 33] | Plant response rating, Kochia [23, 33] | Plant response rating, Kochia [23, 34] | Plant response rating, Soybean [24, 33] | Plant response rating, Soybean [24, 34]
55: Plant response rating, Barnyardgrass (Flood) [27]
30: Blackgrass plant response rating [3, 35] | Plant response rating, Ducksalad (Flood) [11]
80: Plant response rating, Foxtail, Green [2, 33] | Ryegrass, Italian plant response rating [4, 35] | Barnyardgrass plant response rating [22, 35]
0: Plant response rating, Blackgrass [3, 36] | Plant response rating, Corn [7, 36] | Plant response rating, Kochia [13, 36] | Plant response rating, Oat, Wild [16, 33] | Plant response rating, Oat, Wild [16, 34] | Plant response rating, Wheat [21, 36]
20: Plant response rating, Foxtail, Green [2, 34] | Plant response rating, Wheat [8, 33] | Plant response rating, Oat, Wild [15, 36] | Plant response rating, Barnyardgrass [18, 34] | Plant response rating, Barnyardgrass [22, 36] | Plant response rating, Blackgrass [25, 34]
70: Plant response rating, Ryegrass, Italian [4, 36] | Plant response rating, Ragweed [6, 36] | Plant response rating, Blackgrass [25, 33]
10: Plant response rating, Rice (Flood) [1] | Plant response rating, Wheat [8, 34] | Plant response rating, Corn [14, 34] | Wheat plant response rating [21, 35]
60: Plant response rating, Ryegrass, Italian [17, 33] | Plant response rating, Horseweed [28, 33] | Plant response rating, Horseweed [28, 34]
90: Plant response rating, Pigweed, Palmer [5, 34] | Ragweed plant response rating [6, 35] | Kochia plant response rating [13, 35] | Plant response rating, Ragweed [20, 34] | Soybean plant response rating [26, 35]
50: Corn plant response rating [7, 35] | Plant response rating, Foxtail, Green [12, 36] | Plant response rating, Corn [14, 33] | Plant response rating, Barnyardgrass [18, 33] | Plant response rating, Soybean [26, 36]
